Data set [1] is described as follows: Competitive equilibration experiments. The following applies: 2-MeTHF.
Description: Relative stability of the anhydrate Forms A, C, H and J was investigated with competitive equilibration experiments.
Relative stability of the anhydrates Forms C, K and L was investigated with competitive equilibration experiments.
Relative stability of the anhydrates Form C and Form P was systematically investigated with competitive equilibration experiments.
About 5 mg of Form C and about 5 mg of Form P were added to 0.25 mL of saturated solutions of selected solvents. Obtained suspensions were stirred at 25° C., 50° C. and 70° C. for 4 days, respectively. Solid parts (wet cakes) were isolated by centrifugation filtration and investigated by XRPD.
About 10 mg of Form C and about 10 mg of Form P were added to 0.5 mL saturated solutions of selected solvents. Obtained suspensions were stirred at 80/C and 90 C, respectively. Solid parts (wet cakes) were be isolated by centrifugation filtration and investigated by XRPD.
About 3 mg of the Form P and 3 mg of the mixture of Form P and Form J were added to 0.2 mL of saturated solutions of selected solvents. Obtained suspensions were stirred at 25° C., 50° C. and 70° C. for 4 days, respectively. Solid parts (wet cakes) were isolated by centrifugation filtration and investigated by XRPD.
About 3 mg of Form P and 3 mg of the physical mixture of Form P and Form R were added to 0.2 mL of saturated solutions of 2-MeTHF. Obtained suspensions were stirred at 25° C., 50° C. and 70° C., respectively. Solid parts (wet cakes) were isolated by centrifugation filtration and investigated by XRPD.
About 1.5 mg of Form P, 1.5 mg of Form X and 1.5 mg Form Y were added to 0.15 mL saturated solution of 2-MeTHF. Obtained suspensions were stirred at 25° C., 50° C. and 70° C., respectively. Solid parts (wet cake) were isolated by centrifugation filtration and investigated by XRPD.
Data set [2] has as its system LNCaP cells expressing ARR2PB-FireflyLuc and CMV-RenillaLuc. The data set is described as follows: LNCaP ARR2PB-FireflyLuc reporter assay. Particulars: Homo sapiens, +/−0.5 nM DHT, 48 h at 37° C. In kind it is cell-based. On the procedure:
LNCaP cells expressing ARR2PB-FireflyLuc and CMV-RenillaLuc were treated with indicated concentrations of the test compound, enzalutamide (negative control), or DHT (positive control)+/−0.5 nM DHT for 48 h at 37° C. […] signals were read with the ImageXpress Micro Confocal System. Remaining activity (antagonist mode) was calculated as % Remaining Activity=100×[(Readsample−LCave)/(HCave−LCave)] where HC is cells treated with 0.5 nM DHT only and LC is cells treated with 10 uM enzalutamide+0.5 nM DHT. Activation (agonist mode) was calculated as % Activation=100×[(ReadSample−LCave)/(HCave−LCave)] where HC is cells treated with 1 uM DHT and LC is cells treated with DMSO. Dose response curves and IC50 values were calculated using non-linear regression analysis in XLfit.

A short description of data set [3]: Competitive water activity experiments. Particulars: whole range of water activity (0≤a.w.≤1).
Data set [4] can be described thus: Form change on heating, dehydration or desolvation (TGA, DSC, variable temperature XRPD). Format: physicochemical. The following applies: for Form after heating: variable temperature XRPD. On the procedure: Relative stability of the anhydrates Form R and Form P was investigated by variable temperature XRPD and competitive equilibration experiments.
Relative stability of the anhydrates Form B, Form X, Form Y and Form C was investigated by variable temperature XRPD. Form B converted to Form X, Form Y and Form C after heating to 150° C., 176° C. and 180° C., respectively.

Assay in data set [5]: as above
In kind it is physicochemical.

Data set [6] is described as follows: Dry grinding simulation experiments. Format: physicochemical. Particulars: ground manually with mortar and pestle, 5 min. On the procedure:
About 10 mg of Form P was ground manually with a mortar and a pestle for 1, 3 and 5 minutes.
About 10 mg of Form C was ground manually with a mortar and a pestle for 5 minutes.

The nature of data set [7]: Wet granulation simulation experiments. Format: physicochemical. On the procedure: Water or ethanol was added drop wise to about 10 mg of Form P until the sample is wetted sufficiently. Wet sample was ground gently with in a mortar and a pestle. Post granulation sample was dried under ambient condition for 10 min.
Water or ethanol was added drop wise to about 10 mg of Form C until the sample is wetted sufficiently. Wet sample was ground gently with in a mortar and a pestle. Post granulation sample was dried under ambient condition for 5 min.

Data set [8] is described as follows: Form conversion kinetics from Form C to Form P. In kind it is physicochemical. On the procedure: To investigate form conversion kinetics from Form C to Form P, equilibration experiments with Form C in pH 1.2 HCl buffer, 2-MeTHF, heptane and water were conducted. In 2-MeTHF, Form C converted to Form P within 2 h at 25° C. In pH 1.2 HCl buffer, Form C converted to Form P after 31 h at 37° C. In heptane, Form C converted to Form P completely after 1 week at 25° C. In water, Form C converted to Form P completely after 4 days at 25° C.

Data set [9] is described as follows: Exposure to humidity or ambient condition. Format: physicochemical.
Data set [10] can be described thus: Equilibration with solvents. In kind it is physicochemical. On the procedure:
Obtained suspensions were filtered through a 0.45 μm nylon membrane filter by centrifugation at 14,000 rpm. Solid parts (wet cakes) were investigated by XRPD. For samples with different XRPD patterns, additional analysis including DSC, TGA, ^1H-NMR were performed.
(§1) Obtained suspensions were filtered through a 0.45 μm nylon membrane filter by centrifugation at 14,000 rpm.
as §1

Here are results for 12 compounds from patent publication US20250263396A1, “CRYSTALLINE FORMS OF 3-(5-(2-HYDROXY-2- METHYLPROPOXY)-6-METHYPYRAZIN-2-YL)-1H-INDOLE-7-CARBONITRILE” (NIDO BIOSCIENCES, INC., priority 2024, published 2025).

Structures are written as SMILES. “Also recorded” adds a separate entry of the source. Like-named read-outs stand apart in the source and are kept apart here. A value given as a limit tells only on which side of the number the result lay.

In the case of `Cc1nc(-c2c[nH]c3c(C#N)cccc23)cnc1OCC(C)(C)O` [3-(5-(2-hydroxy-2-methylpropoxy)-6-methylpyrazin-2-yl)-1H-indole-7-carbonitrile], the “XRPD after competitive equilibration” value in data set [1] (25° C. for 3 days) is “Form P”; in data set [1] (50° C. for 3 days), “Form P”; in data set [1] (70° C. for 1 week), “Form P”; in [1] (70° C. for 3 days), “Form P + one peak”. Further, the 50% inhibitory concentration (IC50) in data set [2] is 50 nM.

For the compound `Cc1nc(-c2c[nH]c3c(C#N)cccc23)cnc1OCC(C)(C)O` [Form B, 3-(5-(2-hydroxy-2-methylpropoxy)-6-methylpyrazin-2-yl)-1H-indole-7-carbonitrile], in data set [3], the “Relative stability in water activity experiments” value (“Relative stability” below) was “converts to anhydrate Form C”. Further, the Form after heating entry in data set [4] (heating to 150° C.) is on record as “Form X”; in [4] (heating to 176° C.) it was “Form Y”; in data set [4] (heating to 180° C.) it was “Form C”. Also, in [5], the Form after dehydration entry was “converts to Form K”.

Turning to `Cc1nc(-c2c[nH]c3c(C#N)cccc23)cnc1OCC(C)(C)O` [Form U, 3-(5-(2-hydroxy-2-methylpropoxy)-6-methylpyrazin-2-yl)-1H-indole-7-carbonitrile], the Form after desolvation result in [5] is recorded as “converted to Form C”.

Take `Cc1nc(-c2c[nH]c3c(C#N)cccc23)cnc1OCC(C)(C)O` [Form Q, 3-(5-(2-hydroxy-2-methylpropoxy)-6-methylpyrazin-2-yl)-1H-indole-7-carbonitrile]: the Form after desolvation entry in data set [5] (desolvation by heating to 150° C.) was “converted to a physical mixture of Form C (majority) and Form Q”.

Consider `Cc1nc(-c2c[nH]c3c(C#N)cccc23)cnc1OCC(C)(C)O` [Form C, 3-(5-(2-hydroxy-2-methylpropoxy)-6-methylpyrazin-2-yl)-1H-indole-7-carbonitrile], for which the “Comments (crystallinity)” value is “Crystallinity decreased slightly” in data set [6], “Crystallinity decreased” in [7] (granulation solvent Ethanol) and “Crystallinity decreased slightly” in data set [7] (granulation solvent Water). Further, the XRPD result in [6], in data set [7] (granulation solvent Ethanol) and in data set [7] (granulation solvent Water) was “Form C” in each case. For the same compound, in [3], the “Relative stability” value is “stable”. The “Time to conversion to Form P” value in data set [8] (2-MeTHF, 25° C.) was not above 2 h; in data set [8] (pH 1.2 HCl buffer, 37° C.), 31 h. The “Time to complete conversion to Form P” value in data set [8] (heptane, 25° C.) was 1 week; in [8] (water, 25° C.), 4 days.

Consider `Cc1nc(-c2c[nH]c3c(C#N)cccc23)cnc1OCC(C)(C)O` [Form N, 3-(5-(2-hydroxy-2-methylpropoxy)-6-methylpyrazin-2-yl)-1H-indole-7-carbonitrile], for which, in data set [3], the “Relative stability” value is recorded as “converts to Form C”.

For the compound `Cc1nc(-c2c[nH]c3c(C#N)cccc23)cnc1OCC(C)(C)O` [Form E, 3-(5-(2-hydroxy-2-methylpropoxy)-6-methylpyrazin-2-yl)-1H-indole-7-carbonitrile], the Form after heating result in [5] (heating to 100° C. by TGA and cooled to room temperature) was “converts to physical mixture of Form F and Form G”.

Regarding `Cc1nc(-c2c[nH]c3c(C#N)cccc23)cnc1OCC(C)(C)O` [Form D, 3-(5-(2-hydroxy-2-methylpropoxy)-6-methylpyrazin-2-yl)-1H-indole-7-carbonitrile], the Form after desolvation entry in data set [5] is recorded as “converts to Form C”.

As for `Cc1nc(-c2c[nH]c3c(C#N)cccc23)cnc1OCC(C)(C)O` [Form K, 3-(5-(2-hydroxy-2-methylpropoxy)-6-methylpyrazin-2-yl)-1H-indole-7-carbonitrile], the “Form after humidity exposure” value in data set [9] (25° C./92% RH for 6 days) is listed as “reverts back to Form B; also recorded: converts to hydrate Form B”. The “Form after melting and re-crystallization” value in data set [4] (DSC thermogram and VT-XRPD) was “converts to Form L”.

For `Cc1nc(-c2c[nH]c3c(C#N)cccc23)cnc1OCC(C)(C)O` [Form S, 3-(5-(2-hydroxy-2-methylpropoxy)-6-methylpyrazin-2-yl)-1H-indole-7-carbonitrile], the “Relative stability” value in data set [3] was “converted to anhydrate Form P”.

For `Cc1nc(-c2c[nH]c3c(C#N)cccc23)cnc1OCC(C)(C)O` [Form V, 3-(5-(2-hydroxy-2-methylpropoxy)-6-methylpyrazin-2-yl)-1H-indole-7-carbonitrile], the “Time to conversion to Form W” value in data set [9] (ambient condition (20° C.-27° C., 50% RH-70% RH)) is not above 12 h.

`Cc1nc(-c2c[nH]c3c(C#N)cccc23)cnc1OCC(C)(C)O` [Amorphous form, 3-(5-(2-hydroxy-2-methylpropoxy)-6-methylpyrazin-2-yl)-1H-indole-7-carbonitrile]: in [9] (exposure to high humidity), the “Form after humidity exposure” value is listed as “crystallized to Form N”. The XRPD after equilibration entry in data set [10] (2-MeTHF, 25° C.) is “Form P”; in [10] (2-MeTHF/heptane (v:v = 1:1), 25° C.), “Form P”; in data set [10] (2-MeTHF/heptane (v:v = 3:1), 25° C.), “Form P”; in data set [10] (2-Propanol, 25° C.), “Form P”; in data set [10] (Acetone, 25° C.), “Form P”; in [10] (Acetone/water (v:v = 30:70) a.w. = 0.92, 25° C.), “Form P”. Besides, the XRPD after equilibration result in [10] (Acetonitrile, 25° C.) is “Form P”; in [10] (DMSO/water (v:v = 40:60) a.w. = 0.77, 25° C.), “Form P”; in data set [10] (Ethanol, 25° C.) it was “Form P”; in [10] (Ethanol/water (v:v = 40:60) a.w. = 0.91, 25° C.), “Form P”; in data set [10] (Ethyl acetate, 25° C.) it was “Form P”; in data set [10] (Isopropyl acetate, 25° C.), “Form P”. Besides, the XRPD after equilibration result in data set [10] (MEK, 25° C.) is “Form P”; in data set [10] (MTBE, 25° C.) it was “Form P”; in data set [10] (Methanol, 25° C.) it was “Form B”; in [10] (THF, 25° C.), “Form I”; in [10] (Toluene, 25° C.) it was “Form C”; in data set [10] (heptane, 25° C.), “Form C”. In addition, the XRPD after equilibration result in data set [10] (pH 1.2 HCl/KCl buffer, 25° C.) is “Form P”; in data set [10] (water, 25° C.), “Form P”.
